Patent US10098861B1 (SyneuRx International (Taiwan) Corp., priority 2017, dated 2018)

Details: 500 mg, >90% RH, ambient temperature, 5 days

In the case of `O=C([O-])c1ccccc1.[Na+]` [sodium benzoate], the “change in XRPD pattern” value is reported as “significant changes”.
